# Laboratory results published in patent publication US9187472B2 (AbbVie Inc., priority 2012, dated 2015).
# pIC50: −log10 of the molar value.
# System: PC3 cells
# Experiment: NAMPT Cell Proliferation Assay
# Format: cell-based
# Conditions: Homo sapiens, PC-3, 120 h, 5 days incubation, cell viability by Cell Titer Glo
# Experimental: NAMPT Cell Proliferation Assay
# PC3 cells were seeded in 96-well black plates (Corning #3904) at 500 cells/well in 90 μl of RPMI media containing 10% heat-inactivated FBS and incubated overnight at 37° C. and 5% CO2 to allow cells to attach to wells. The following day, test compounds were serially diluted in neat DMSO to 1000× final concentrations prior to dilution with RPMI media to 10× and 1% DMSO. Ten μL of the 10× compounds were then transferred to wells containing cells to produce a dose response of 10-fold dilutions from 10 μM to 1×10^−5 μM. Cells were incubated for 5 days at 37° C. and 5% CO2, then cell viability was measured using Cell Titer Glo reagent (Promega #G7571). Percent inhibition values were calculated and fitted to a sigmoidal dose response curves using Assay Explorer software to determine IC50s.
row,pIC50,SMILES
1,8.08,"O=C(NCc1ccc2ncnn2c1)c1ccc(C2CCN(S(=O)(=O)c3ccccc3)CC2)s1 [Example 860, 5-[1-(phenylsulfonyl)piperidin-4-yl]-N-([1,2,4]triazolo[1,5-a]pyridin-6-ylmethyl)thiophene-2-carboxamide]"
2,9.24,"CC1(Cn2cc(-c3ccc(C(=O)NCc4cn5ccnc5cn4)s3)cn2)CCOCC1 [Example 861, N-(imidazo[1,2-a]pyrazin-6-ylmethyl)-5-{1-[(4-methyltetrahydro-2H-pyran-4-yl)methyl]-1H-pyrazol-4-yl}thiophene-2-carboxamide]"
3,9.11,"CC(C)(C)OC(=O)N1CCC(c2ccc(NC(=O)Cc3ccc4nccn4c3)cc2)CC1 [Example 862, tert-butyl 4-{4-[(imidazo[1,2-a]pyridin-6-ylacetyl)amino]phenyl}piperidine-1-carboxylate]"
4,9.19,"O=C(Cc1ccc2nccn2c1)Nc1ccc(C2CCN(C(=O)c3ccccc3F)CC2)cc1 [Example 863, N-{4-[1-(2-fluorobenzoyl)piperidin-4-yl]phenyl}-2-(imidazo[1,2-a]pyridin-6-yl)acetamide]"
5,7.17,"O=C(NCc1cn2ccnc2cn1)c1ccc(C2CCN(S(=O)(=O)c3ccccc3)CC2)cc1 [Example 864, N-(imidazo[1,2-a]pyrazin-6-ylmethyl)-4-[1-(phenylsulfonyl)piperidin-4-yl]benzamide]"
6,9.06,"CC(C)C(=O)N1CCC(c2ccc(NC(=O)Cc3ccc4nccn4c3)cc2)CC1 [Example 865, 2-(imidazo[1,2-a]pyridin-6-yl)-N-{4-[1-(2-methylpropanoyl)piperidin-4-yl]phenyl}acetamide]"
7,9.28,"O=C(Cc1ccc2nccn2c1)Nc1ccc(C2CCN(C(=O)c3ccc(F)cc3F)CC2)cc1 [Example 866, N-{4-[1-(2,4-difluorobenzoyl)piperidin-4-yl]phenyl}-2-(imidazo[1,2-a]pyridin-6-yl)acetamide]"
8,7.16,"COc1ccccc1CC(=O)Nc1ccc(C(=O)NCc2ccn3ccnc3c2)cc1 [Example 867, N-(imidazo[1,2-a]pyridin-7-ylmethyl)-4-{[(2-methoxyphenyl)acetyl]amino}benzamide]"
9,7.06,"O=C(Cc1ccccc1)Nc1ccc(C(=O)NCc2ccn3ccnc3c2)cc1 [Example 868, N-(imidazo[1,2-a]pyridin-7-ylmethyl)-4-[(phenylacetyl)amino]benzamide]"
10,5.16,"O=C(NCc1ccn2ccnc2c1)c1ccc(NC(=O)c2ccccc2)cc1 [Example 869, 4-(benzoylamino)-N-(imidazo[1,2-a]pyridin-7-ylmethyl)benzamide]"
11,6.00,"O=C(NCc1ccn2ccnc2c1)c1ccc(NC(=O)c2cc(F)ccc2F)cc1 [Example 870, 2,5-difluoro-N-{4-[(imidazo[1,2-a]pyridin-7-ylmethyl)carbamoyl]phenyl}benzamide]"
12,5.14,"O=C(NCc1ccn2ccnc2c1)c1ccc(NC(=O)c2cc(F)cc(F)c2)cc1 [Example 871, 3,5-difluoro-N-{4-[(imidazo[1,2-a]pyridin-7-ylmethyl)carbamoyl]phenyl}benzamide]"
13,< 5.00,"O=C(NCc1ccn2ccnc2c1)c1ccc(NC(=O)c2ccc(F)c(F)c2)cc1 [Example 872, 3,4-difluoro-N-{4-[(imidazo[1,2-a]pyridin-7-ylmethyl)carbamoyl]phenyl}benzamide]"
14,5.41,"O=C(NCc1ccn2ccnc2c1)c1ccc(NC(=O)c2ccc(F)cc2F)cc1 [Example 873, 2,4-difluoro-N-{4-[(imidazo[1,2-a]pyridin-7-ylmethyl)carbamoyl]phenyl}benzamide]"
15,5.18,"O=C(NCc1ccn2ccnc2c1)c1ccc(NC(=O)c2ccccc2F)cc1 [Example 874, 2-fluoro-N-{4-[(imidazo[1,2-a]pyridin-7-ylmethyl)carbamoyl]phenyl}benzamide]"
16,5.94,"COc1cccc(C(=O)Nc2ccc(C(=O)NCc3ccn4ccnc4c3)cc2)c1 [Example 875, N-{4-[(imidazo[1,2-a]pyridin-7-ylmethyl)carbamoyl]phenyl}-3-methoxybenzamide]"
17,7.32,"O=C(Cc1ccccc1F)Nc1ccc(C(=O)NCc2ccn3ccnc3c2)cc1 [Example 876, 4-{[(2-fluorophenyl)acetyl]amino}-N-(imidazo[1,2-a]pyridin-7-ylmethyl)benzamide]"
18,< 5.00,"CC(C)CC1CCCN1C(=O)c1ccc(C(=O)NCc2ccn3ccnc3c2)cc1 (stereo not drawn) [Example 877, N-(imidazo[1,2-a]pyridin-7-ylmethyl)-4-{[2-(2-methylpropyl)pyrrolidin-1-yl]carbonyl}benzamide]"
19,< 5.00,"COC[C@H]1CCCN1C(=O)c1ccc(C(=O)NCc2ccn3ccnc3c2)cc1 [Example 878, N-(imidazo[1,2-a]pyridin-7-ylmethyl)-4-{[(2R)-2-(methoxymethyl)pyrrolidin-1-yl]carbonyl}benzamide]"
20,7.20,"CC(C)(C(=O)N1CCC(c2ccc(C(=O)NCc3ccn4ccnc4c3)s2)CC1)N1CCNCC1 [Example 879, N-(imidazo[1,2-a]pyridin-7-ylmethyl)-5-{1-[2-methyl-2-(piperazin-1-yl)propanoyl]piperidin-4-yl}thiophene-2-carboxamide]"

row,pIC50,SMILES
1,6.12,"COc1ccccc1C(=O)Nc1ccc(C(=O)NCc2ccn3ccnc3c2)cc1 [Example 880, N-{4-[(imidazo[1,2-a]pyridin-7-ylmethyl)carbamoyl]phenyl}-2-methoxybenzamide]"
2,5.07,"O=C(NCc1ccn2ccnc2c1)c1ccc(S(=O)(=O)c2ccccc2)cc1 [Example 881, N-(imidazo[1,2-a]pyridin-7-ylmethyl)-4-(phenylsulfonyl)benzamide]"
3,< 5.00,"O=C(NCc1ccc2ncnn2c1)c1ccc(S(=O)(=O)c2ccccc2)cc1 [Example 882, 4-(phenylsulfonyl)-N-([1,2,4]triazolo[1,5-a]pyridin-6-ylmethyl)benzamide]"
4,9.66,"CC(C)(C)Cn1cc(-c2ccc(C(=O)NCc3ccn4ccnc4c3)s2)cn1 [Example 883, 5-[1-(2,2-dimethylpropyl)-1H-pyrazol-4-yl]-N-(imidazo[1,2-a]pyridin-7-ylmethyl)thiophene-2-carboxamide]"
5,9.01,O=C(NCc1ccn2ccnc2c1)c1ccc(-c2cnn(CC34CC5CC(CC(C5)C3)C4)c2)s1 [Example 884]
6,8.27,"O=C(NCc1ccn2ccnc2c1)c1ccc(-c2cnn(Cc3ccccc3)c2)s1 [Example 885, 5-(1-benzyl-1H-pyrazol-4-yl)-N-(imidazo[1,2-a]pyridin-7-ylmethyl)thiophene-2-carboxamide]"
7,9.71,O=C(NCc1ccn2ccnc2c1)c1ccc(-c2cnn(CC34CC5CC(CC(C5)O3)C4)c2)s1 [Example 886]
8,9.67,"O=C(NCc1ccn2ccnc2c1)c1ccc(C2CCN(C(=O)c3cc(F)ccc3F)CC2)s1 [Example 887, 5-[1-(2,5-difluorobenzoyl)piperidin-4-yl]-N-(imidazo[1,2-a]pyridin-7-ylmethyl)thiophene-2-carboxamide]"
9,9.31,"O=C(NCc1ccn2ccnc2c1)c1ccc(C2CCN(C(=O)c3ccc(F)cc3F)CC2)s1 [Example 888, 5-[1-(2,4-difluorobenzoyl)piperidin-4-yl]-N-(imidazo[1,2-a]pyridin-7-ylmethyl)thiophene-2-carboxamide]"
10,6.19,"O=C(NCc1ccn2ccnc2c1)c1ccc(-c2cnn(CCN3CCNCC3)c2)o1 [Example 889, N-(imidazo[1,2-a]pyridin-7-ylmethyl)-5-{1-[2-(piperazin-1-yl)ethyl]-1H-pyrazol-4-yl}furan-2-carboxamide]"
11,7.50,"O=C(Cc1cc(F)ccc1F)Nc1ccc(C(=O)NCc2ccn3ccnc3c2)cc1 [Example 890, 4-{[(2,5-difluorophenyl)acetyl]amino}-N-(imidazo[1,2-a]pyridin-7-ylmethyl)benzamide]"
12,7.06,"O=C(Cc1ccc(F)cc1F)Nc1ccc(C(=O)NCc2ccn3ccnc3c2)cc1 [Example 891, 4-{[(2,4-difluorophenyl)acetyl]amino}-N-(imidazo[1,2-a]pyridin-7-ylmethyl)benzamide]"
13,8.17,"Cn1nc(C2CC2)cc1-c1ccc(C(=O)NCc2ccn3ccnc3c2)s1 [Example 892, 5-(3-cyclopropyl-1-methyl-1H-pyrazol-5-yl)-N-(imidazo[1,2-a]pyridin-7-ylmethyl)thiophene-2-carboxamide]"
14,9.18,"COCCn1nc(C2CC2)cc1-c1ccc(C(=O)NCc2ccn3ccnc3c2)s1 [Example 893, 5-[3-cyclopropyl-1-(2-methoxyethyl)-1H-pyrazol-5-yl]-N-(imidazo[1,2-a]pyridin-7-ylmethyl)thiophene-2-carboxamide]"
15,6.69,"O=C(NCc1cn2ccnc2cn1)c1ccc(-c2cnn(CCN3CCNCC3)c2)s1 [Example 894, N-(imidazo[1,2-a]pyrazin-6-ylmethyl)-5-{1-[2-(piperazin-1-yl)ethyl]-1H-pyrazol-4-yl}thiophene-2-carboxamide]"
16,6.14,"O=C(NCc1ccn2ccnc2c1)c1ccc(NC(=O)C(F)(F)c2ccccc2)cc1 [Example 895, 4-{[difluoro(phenyl)acetyl]amino}-N-(imidazo[1,2-a]pyridin-7-ylmethyl)benzamide]"
17,5.80,"CC(C)(C(=O)Nc1ccc(C(=O)NCc2ccn3ccnc3c2)cc1)c1ccccc1 [Example 896, N-(imidazo[1,2-a]pyridin-7-ylmethyl)-4-[(2-methyl-2-phenylpropanoyl)amino]benzamide]"
18,6.15,"O=C(NCc1cn2ccnc2cn1)c1ccc(S(=O)(=O)c2ccccc2)cc1 [Example 897, N-(imidazo[1,2-a]pyrazin-6-ylmethyl)-4-(phenylsulfonyl)benzamide]"
19,6.65,"O=C(NCc1ccc2nccn2c1)c1ccc(S(=O)(=O)c2ccccc2)cc1 [Example 898, N-(imidazo[1,2-a]pyridin-6-ylmethyl)-4-(phenylsulfonyl)benzamide]"
